Data: publication PMC7518156 (PeerJ, 2020)
Where two headings read alike, the source gives them in different places.

Test: Pharmacokinetics of ERL and GEF in Wistar rats after four weeks consumption of water or flavoured water (plasma, UPLC-MS/MS, non-compartmental analysis)
Type: in vivo
Details: for AUC(0-t): read-out: AUC0-48; for half-life: read-out: t½ (converted)
Description: Fifty healthy male Wistar rats weighing 250 ± 30 g were obtained from the animal house, College of Pharmacy, King Saud University, Riyadh, Saudi Arabia. Rats were randomly divided into ten cages (n = 5). All individualized ventilated cages (IVC) type IV used in this study were of 20″L × 11″W × 9″ in dimension capable of hosting 4–5 rats. Cages density, bedding, and sanitation frequency was similar in all cages. Cages were housed at room temperature (25 °C) and at an average relative humidity of 50%. Daily observation of all rats was required to ensure that all animals maintained good health. All animal experiments strictly followed the guidelines of the Ethical Committee for Performing Studies on Animals, King Saud University, Riyadh, Saudi Arabia, protocol number KSU-SE-19-13.
Four types of FW, (Aquafina®, a product of Pepsi-Cola®, Saudi Industrial Projects Company, Jeddah, Saudi Arabia) with different flavours, specifically berry (group II), peach (group III), lime (group IV), and pineapple FW (group V) were used. Other components found in FW used in this study include water, preservatives (sodium phosphate, potassium sorbet, sodium benzoate), acidifiers (citric acid, maleic acid), sweeteners (aspartame, potassium acesulfame, allose), acidity regulator (sodium citrate), and antioxidant agent (calcium disodium EDTA). […] The parallel design was used in this study to avoid animals’ physiological changes that could occur in the cross-over design, possibly affecting PK profiles of drug substances. All animals involved in the study were deprived from food, but not water/FW, for at least 12 h before drug administration. […] Drugs were administered to the rats between 7:00 am and 8:00 am. Rats were separately weighed from day one of water/FW consumption prior to drug administration for accurate dose calculation (Fig. S1). Blood samples (0.3 mL) were collected from each rat immediately prior to dosing (0 time) and at predetermined time points (0.5, 1, 2, 3, 5, 24, and 48 h) post drug administration. Blood samples were withdrawn and processed as described previously ([Maher et al., 2017]; [Maher, Alzoman & Shehata, 2016]; [Maher, Alzoman & Shehata, 2018]). Specifically, blood samples were withdrawn from the retro-orbital sinus into a series of heparinized tubes. Plasma was separated from collected blood samples by centrifugation at 4,500 rpm for 30 min where the centrifuge was maintained at 4 °C, and then stored at −20 °C until the day of analysis. […] A mixture of acetonitrile: water (80: 20, v/v), with 0.1% formic acid was used as a mobile phase at a flow rate of 0.2 mL/min ([Maher, Alzoman & Shehata, 2016]).
Cmax and tmax were obtained from the corresponding plasma concentration–time curve (Figs. 1A and 1B). […] The area under the plasma concentration–time curve from time 0 to the last sampling time t, 48 h (AUC0–t) was calculated using the trapezoidal rule. […] AUC0–∞ was also derived by summing up AUC0–t andthe area obtained by extrapolation from time t to ∞. The latter area was calculated from the division of the last measured concentration (Clast) by λz.
Results were presented as mean ± SD. PK parameters of all treated groups following the consumption of FW were compared with control (rats having free access to water), using one-way ANOVA and Bonferroni’s multiple comparisons test. Statistical significance was obtained with p-values ≤ 0.05.

[1] = male, Wistar, rat, plasma, oral, 20 mg/kg, PKSolver sheet, dose 20 mg/kg, +Berry, read-out: Conc
[2] = male, Wistar, rat, plasma, oral, 20 mg/kg, PKSolver sheet, dose 20 mg/kg, +Lime, read-out: Conc
[3] = male, Wistar, rat, plasma, oral, 20 mg/kg, PKSolver sheet, dose 20 mg/kg, +Peach, read-out: Conc
[4] = male, Wistar, rat, plasma, oral, 20 mg/kg, PKSolver sheet, dose 20 mg/kg, +Pineapple, read-out: Conc
[5] = male, Wistar, rat, plasma, oral, 20 mg/kg, PKSolver sheet, dose 20 mg/kg, drug alone (water), read-out: Conc
[6] = male, Wistar, rat, plasma, po, 20 mg/kg, rats, 20 mg/kg oral, +Berry FW, average, read-out: Conc*10 (ng/mL plasma)
[7] = male, Wistar, rat, plasma, po, 20 mg/kg, rats, 20 mg/kg oral, +Lime FW, average, read-out: Conc*10 (ng/mL plasma)
[8] = male, Wistar, rat, plasma, po, 20 mg/kg, rats, 20 mg/kg oral, +Peach FW, average, read-out: Conc*10 (ng/mL plasma)
[9] = male, Wistar, rat, plasma, po, 20 mg/kg, rats, 20 mg/kg oral, +Pineapple FW, average, read-out: Conc*10 (ng/mL plasma)
[10] = male, Wistar, rat, plasma, po, 20 mg/kg, rats, 20 mg/kg oral, drug alone (water), average, read-out: Conc*10 (ng/mL plasma)
[11] = male, Wistar, rat, plasma, po, 20 mg/kg, rats, 20 mg/kg oral, four weeks berry FW, n = 5, mean (SD)
[12] = male, Wistar, rat, plasma, po, 20 mg/kg, rats, 20 mg/kg oral, four weeks peach FW, n = 5, mean (SD)
[13] = male, Wistar, rat, plasma, po, 20 mg/kg, rats, 20 mg/kg oral, four weeks pineapple FW, n = 5, mean (SD)
[14] = male, Wistar, rat, plasma, po, 20 mg/kg, rats, 20 mg/kg oral, water (control), n = 5, mean (SD)
[15] = male, Wistar, rat, plasma, po, 20 mg/kg, raw data sheet, from average profile, +Berry FW
[16] = male, Wistar, rat, plasma, po, 20 mg/kg, raw data sheet, from average profile, +Lime FW
[17] = male, Wistar, rat, plasma, po, 20 mg/kg, raw data sheet, from average profile, +Peach FW
[18] = male, Wistar, rat, plasma, po, 20 mg/kg, raw data sheet, from average profile, +Pineapple FW
[19] = male, Wistar, rat, plasma, po, 20 mg/kg, raw data sheet, from average profile, drug alone (water)
[20] = rats, lime FW relative to control (water)
[21] = rats, pineapple FW relative to control (water)

concentration at 0 h [1]: 39.1 ng/mL
concentration at 0.5 h [1]: 99.7 ng/mL
concentration at 1 h [1]: 152 ng/mL
concentration at 2 h [1]: 322 ng/mL
concentration at 3 h [1]: 191 ng/mL
concentration at 5 h [1]: 150 ng/mL
concentration at 24 h [1]: 81.4 ng/mL
concentration at 48 h [1]: 30.2 ng/mL
concentration at 0 h [2]: 157 ng/mL
concentration at 0.5 h [2]: 387 ng/mL
concentration at 1 h [2]: 483 ng/mL
concentration at 2 h [2]: 574 ng/mL
concentration at 3 h [2]: 643 ng/mL
concentration at 5 h [2]: 490 ng/mL
concentration at 24 h [2]: 216 ng/mL
concentration at 48 h [2]: 95.2 ng/mL
concentration at 0 h [3]: 44.5 ng/mL
concentration at 0.5 h [3]: 135 ng/mL
concentration at 1 h [3]: 202 ng/mL
concentration at 2 h [3]: 365 ng/mL
concentration at 3 h [3]: 213 ng/mL
concentration at 5 h [3]: 161 ng/mL
concentration at 24 h [3]: 85.3 ng/mL
concentration at 48 h [3]: 25.2 ng/mL
Cmax (male, Wistar, rat, plasma, oral, 20 mg/kg, PKSolver sheet, dose 20 mg/kg, +Pineapple): 445 ng/mL
Tmax (male, Wistar, rat, plasma, oral, 20 mg/kg, PKSolver sheet, dose 20 mg/kg, +Pineapple, read-out: Tmax): 2 h
concentration at 0 h [4]: 75.5 ng/mL
concentration at 0.5 h [4]: 227 ng/mL
concentration at 1 h [4]: 302 ng/mL
concentration at 2 h [4]: 445 ng/mL
concentration at 3 h [4]: 259 ng/mL
concentration at 5 h [4]: 210 ng/mL
concentration at 24 h [4]: 152 ng/mL
concentration at 48 h [4]: 40.2 ng/mL
concentration at 0 h [5]: 34.5 ng/mL
concentration at 0.5 h [5]: 142 ng/mL
concentration at 1 h [5]: 220 ng/mL
concentration at 2 h [5]: 402 ng/mL
concentration at 3 h [5]: 169 ng/mL
concentration at 5 h [5]: 148 ng/mL
concentration at 24 h [5]: 69.8 ng/mL
concentration at 48 h [5]: 29.2 ng/mL
concentration at 0 h [6]: 39.1 ng/mL
concentration at 0.5 h [6]: 99.7 ng/mL
concentration at 1 h [6]: 152 ng/mL
concentration at 2 h [6]: 322 ng/mL
concentration at 3 h [6]: 191 ng/mL
concentration at 5 h [6]: 150 ng/mL
concentration at 24 h [6]: 81.4 ng/mL
concentration at 48 h [6]: 30.2 ng/mL
concentration at 0 h [7]: 157 ng/mL
concentration at 0.5 h [7]: 387 ng/mL
concentration at 1 h [7]: 483 ng/mL
concentration at 2 h [7]: 574 ng/mL
concentration at 3 h [7]: 643 ng/mL
concentration at 5 h [7]: 490 ng/mL
concentration at 24 h [7]: 216 ng/mL
concentration at 48 h [7]: 95.2 ng/mL
concentration at 0 h [8]: 44.5 ng/mL
concentration at 0.5 h [8]: 135 ng/mL
concentration at 1 h [8]: 202 ng/mL
concentration at 2 h [8]: 365 ng/mL
concentration at 3 h [8]: 213 ng/mL
concentration at 5 h [8]: 161 ng/mL
concentration at 24 h [8]: 85.3 ng/mL
concentration at 48 h [8]: 25.2 ng/mL
concentration at 0.5 h [9]: 227 ng/mL
concentration at 1 h [9]: 302 ng/mL
concentration at 2 h [9]: 445 ng/mL
concentration at 3 h [9]: 259 ng/mL
concentration at 5 h [9]: 210 ng/mL
concentration at 24 h [9]: 152 ng/mL
concentration at 48 h [9]: 40.2 ng/mL
concentration at 0 h [10]: 34.5 ng/mL
concentration at 0.5 h [10]: 142 ng/mL
concentration at 1 h [10]: 220 ng/mL
concentration at 2 h [10]: 402 ng/mL
concentration at 3 h [10]: 169 ng/mL
concentration at 5 h [10]: 148 ng/mL
concentration at 24 h [10]: 69.8 ng/mL
concentration at 48 h [10]: 29.2 ng/mL
AUC(0-inf) [11]: 5230 ng·h/mL
CL/F [11]: 74.7 mL/min/kg
AUC(0-t) [11]: 4460 ng·h/mL
Tmax (male, Wistar, rat, plasma, po, 20 mg/kg, rats, 20 mg/kg oral, four weeks berry FW, n = 5, mean (SD), read-out: tmax): 2.33 h
half-life [11]: 17.7 h
half-life (male, Wistar, rat, plasma, po, 20 mg/kg, rats, 20 mg/kg oral, four weeks lime FW, n = 5, mean (SD)): 16.9 h
AUC(0-inf) [12]: 5300 ng·h/mL
CL/F [12]: 70.3 mL/min/kg
Cmax [12]: 365 ng/mL
AUC(0-t) [12]: 4740 ng·h/mL
Tmax (male, Wistar, rat, plasma, po, 20 mg/kg, rats, 20 mg/kg oral, four weeks peach FW, n = 5, mean (SD), read-out: tmax): 2 h
half-life [12]: 15.4 h
Cmax [13]: 445 ng/mL
Tmax (male, Wistar, rat, plasma, po, 20 mg/kg, rats, 20 mg/kg oral, four weeks pineapple FW, n = 5, mean (SD), read-out: tmax): 1.71 h
half-life [13]: 17.8 h
AUC(0-inf) [14]: 5060 ng·h/mL
CL/F [14]: 77.3 mL/min/kg
Cmax [14]: 406 ng/mL
AUC(0-t) [14]: 4310 ng·h/mL
Tmax (male, Wistar, rat, plasma, po, 20 mg/kg, rats, 20 mg/kg oral, water (control), n = 5, mean (SD), read-out: tmax): 2 h
half-life [14]: 17.9 h
AUC [15]: 5230 ng·h/mL
Cmax [15]: 322 ng/mL
Tmax (male, Wistar, rat, plasma, po, 20 mg/kg, raw data sheet, from average profile, +Berry FW, read-out: tmax): 2 h
half-life [15]: 17.7 h
AUC [16]: 15400 ng·h/mL
Cmax [16]: 643 ng/mL
half-life [16]: 16.9 h
AUC [17]: 5300 ng·h/mL
Cmax [17]: 365 ng/mL
Tmax (male, Wistar, rat, plasma, po, 20 mg/kg, raw data sheet, from average profile, +Peach FW, read-out: tmax): 2 h
half-life [17]: 15.4 h
AUC [18]: 8170 ng·h/mL
Cmax [18]: 445 ng/mL
Tmax (male, Wistar, rat, plasma, po, 20 mg/kg, raw data sheet, from average profile, +Pineapple FW, read-out: tmax): 2 h
half-life [18]: 17.8 h
AUC [19]: 5060 ng·h/mL
Cmax [19]: 402 ng/mL
Tmax (male, Wistar, rat, plasma, po, 20 mg/kg, raw data sheet, from average profile, drug alone (water), read-out: tmax): 2 h
half-life [19]: 17.9 h
effect on exposure (AUC0–48) (rats, berry FW relative to control (water)): no effect was found
decrease in apparent oral clearance (CL/F) [20]: 67%
increase in AUC0–48 [20]: 203%
increase in AUC0–∞ [20]: 203%
increase in Cmax [20]: 58%
increase in tmax [20]: ~50%
decrease in apparent oral clearance (CL/F) [21]: ~40%
increase in AUC0–48 [21]: ~65%
increase in AUC0–∞ [21]: ~61%
Tmax (raw data sheet, from average profile, +Lime FW): 3 h
% change FOR C MAX (raw data sheet, +Berry FW vs drug alone): -19% FOR C MAX
% change FOR C MAX (raw data sheet, +Lime FW vs drug alone): 60% FOR C MAX
% change FOR C MAX (raw data sheet, +Peach FW vs drug alone): -9% FOR C MAX
% change FOR C MAX (raw data sheet, +Pineapple FW vs drug alone): 11% FOR C MAX
Compound: COc1cc2ncnc(Nc3ccc(F)c(Cl)c3)c2cc1OCCCN1CCOCC1 [GEF, Gefitinib]
change in t1/2 (rats, all tested FW relative to control (water)): None of the tested FW caused a significant change
